Measured values published in article PMC10221469 (Viruses, 2023).
Where two headings read alike, the source gives them in different places.

Legend:
SARS-CoV-2 [1] = assay: microbe, parasite or virus in culture; assay type: cell-based; details: for IC50: read-out: IC50 (anti-viral activity)
A549 ACE2+ cells = details: 48 h, CellTiter-Glo
in vitro [2] = details: african green monkey
SARS-CoV-2 nsp13 = SARS-CoV-2 nsp13 (Severe acute respiratory syndrome coronavirus 2, UniProt P0DTD1); assay: biochemical; details: 1 nM nsp13, 1 mM ATP, 15 min at 37 °C; unit printed in b45 only; read-out: IC50 nsp13 helicase unwinding activity
SARS-CoV-2 [3] = assay: microbe, parasite or virus in culture; assay type: cell-based; details: Severe acute respiratory syndrome coronavirus 2, Vero C1008; read-out: CPE IC50
in vitro [4] = details: human, CC50, A549 ACE2+ cells, 48 h, CellTiter-Glo
SARS-CoV-2 [5] = assay: qPCR readout of viral replication in Vero E6 cells; assay type: cell-based; details: Severe acute respiratory syndrome coronavirus 2, Vero C1008, viral replication by qPCR
serine protease TMPRSS2 = target: T1, serine protease TMPRSS2 (Homo sapiens, UniProt O15393); assay: TMPRSS2 inhibition (Axxam S.p.A. proprietary assay); assay type: biochemical
T1 construct: Axxam S.p.A. (assay provider)

SARS-CoV-2 [6] = assay: microbe, parasite or virus in culture; assay type: cell-based; details: Severe acute respiratory syndrome coronavirus 2, A549 ACE2+ cells, 48 h p.i., read-out: inhibition of viral titer (plaque reduction)
[7] = Severe acute respiratory syndrome coronavirus 2, A549-ACE2, 48 h
[8] = ratio of CC50 over IC50, A549 ACE2+ cells

T1 sequence (O15393 whole entry): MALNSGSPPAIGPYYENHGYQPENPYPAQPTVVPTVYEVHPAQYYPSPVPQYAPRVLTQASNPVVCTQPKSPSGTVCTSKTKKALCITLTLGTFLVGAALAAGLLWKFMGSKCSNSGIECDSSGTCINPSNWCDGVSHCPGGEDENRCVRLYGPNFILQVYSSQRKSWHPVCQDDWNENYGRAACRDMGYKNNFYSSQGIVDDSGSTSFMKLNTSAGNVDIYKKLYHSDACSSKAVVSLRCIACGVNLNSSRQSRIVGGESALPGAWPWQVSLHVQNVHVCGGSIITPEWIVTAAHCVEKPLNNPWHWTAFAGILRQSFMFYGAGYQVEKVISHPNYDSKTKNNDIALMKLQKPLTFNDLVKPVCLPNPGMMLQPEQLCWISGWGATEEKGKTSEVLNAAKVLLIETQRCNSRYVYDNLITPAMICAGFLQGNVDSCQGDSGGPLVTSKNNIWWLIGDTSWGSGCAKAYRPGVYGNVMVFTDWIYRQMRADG

Row | Structure (SMILES) | SI (selectivity index) (SARS-CoV-2 [1]) | IC50 (SARS-CoV-2 [1]; [7]) [nM] | IC50 (SARS-CoV-2 [1]) [nM] | CC50 (A549 ACE2+ cells) [nM] | CC50 (in vitro [2]) [nM] | IC50 (SARS-CoV-2 nsp13) [nM] | IC50 (SARS-CoV-2 [3]) [nM] | CC50 (in vitro [4]) [nM] | IC50 (SARS-CoV-2 [5]) [nM] | IC50 (serine protease TMPRSS2) [nM] | inhibition at 1.25 µM (SARS-CoV-2 [6]; 1.25 µM) [%] | inhibition at 2.5 µM (SARS-CoV-2 [6]; 2.5 µM) [%] | inhibition at 0.019 µM (SARS-CoV-2 [6]) [%] | inhibition at 0.039 µM (SARS-CoV-2 [6]) [%] | SI (selectivity index) (SARS-CoV-2 [1]; [8]) | inhibition at 0.009 µM (SARS-CoV-2 [6]; 0.009 µM) [%]
1 | Nc1nc(N)c2nc(CNc3ccc(C(=O)N[C@@H](CCC(=O)O)C(=O)O)cc3)cnc2n1 [Aminopterin] | 1.9 | > 1500 | 1300 | 2490 | > 33000 | 2590 | 330 | > 2000 | 80 |  |  |  |  |  |  | 
2 | CN(Cc1cnc2nc(N)nc(N)c2n1)c1ccc(C(=O)N[C@@H](CCC(=O)O)C(=O)O)cc1 [Methotrexate hydrate] |  | 630 |  |  | > 33000 | 2030 | 2810 | 1180 | 440 | > 30000 | 94 | 98 |  |  |  | 
3 | Nc1nc2[nH]cc(CCc3ccc(C(=O)N[C@@H](CCC(=O)O)C(=O)O)cc3)c2c(=O)[nH]1 [Pemetrexed disodium heptahydrate] |  |  | 5000 | 2430 |  |  |  | > 2000 |  |  |  |  |  |  |  | 
4 | C#CCC(Cc1cnc2nc(N)nc(N)c2n1)c1ccc(C(=O)N[C@@H](CCC(=O)O)C(=O)O)cc1 (stereo partly drawn) [Pralatrexate] | 2 | 4 |  |  | > 33000 | 140 | 50 | 8 | 80 | 450 |  |  | 90.4 | 96.5 |  | 
5 | Cc1nc2ccc(CN(C)c3ccc(C(=O)N[C@@H](CCC(=O)O)C(=O)O)s3)cc2c(=O)[nH]1 [Raltitrexed] |  |  |  |  |  | 3220 |  | 890 |  |  |  |  |  |  | 0.2 | 
6 | CCC(CC)COC(=O)[C@H](C)N[P@](=O)(OC[C@H]1O[C@@](C#N)(c2ccc3c(N)ncnn23)[C@H](O)[C@@H]1O)Oc1ccccc1 [Remdesivir] |  |  |  |  | > 33000 |  | 2740 |  | 3200 |  |  |  |  |  |  | 
7 | COc1cc(NCc2ccc3nc(N)nc(N)c3c2C)cc(OC)c1OC [Trimetrexate] |  | 7 |  |  | > 33000 | 1560 | 340 | 10 | 80 | > 30000 |  |  | 97.5 | 96.5 | 1.4 | 86
